Test results reported in patent US20220016193A1, “ANTIBACTERIAL AND ANTIVIRUS COMPOSITION COMPRISING Extract of CANNABIS SATIVA L” (FAMENITY CO., LTD., priority 2020, published 2022).

Experiments:
Assay in all cases: agar diffusion method using a paper disk
[1] = system: Candida albicans (KCTC7270); conditions: 2.5 mg/ml, 48 hours
Procedure: (§1) In order to measure the antibacterial activities of the Cannabis sativa L. extract (CE) and extract mixtures AM1 to AM6 produced in Production Example 1, a modification of the agar diffusion method (Piddock, L. J. V, Techniques used for the determination of antimicrobial resistance and sensitivity in bacteria, J. Appl. Bacteriol, 68, p. 307, 1990) using a paper disk was performed as follows.
(§2) The bacterial strains were used after subculture (Candida albicans: 24° C., Bacillus subtilis: 30° C., Streptococcus mutans: 37° C., Staphylococcus aureus: 37° C., and Escherichia coli: 37° C.).
(§3) One loop of each of the prepared strains was taken and inoculated in 5 ml of saline, and 1 ml of each of the active solutions was inoculated into a 4 to 5-mm-thick medium (Candida albicans—YM Agar (271210. BD), Bacillus subtilis—Nutrient Agar (213000 BD), Streptococcus mutans—Brain Heart (241830 BD), Staphylococcus aureus—Tryptic Soy Agar (236950 BD), Escherichia coli—Nutrient Agar (213000 BD); incubator: EYELA Multi-Thermo incubator MTI-202), and then spread evenly with a bent glass rod. […]
(§4) The solvent of each injected extract mixture was volatilized, and incubation was performed at 37° C. for 48 hours. Then, the diameter of the inhibition zone formed around each paper disc was measured. […]

[2] = system: Streptococcus mutans (KCTC3065)
Procedure: as §1, §2, §3, §4

[3] = system: Escherichia coli (KCTC7039); conditions: 2.5 mg/ml, 48 hours
Procedure: as §1, §2, §3, §4

[4] = system: Bacillus subtilis (KCTC1021); conditions: 2.5 mg/ml, 48 hours
Procedure: as §1, §2, §3, §4

[5] = system: Staphylococcus aureus (KCTC1621); conditions: 2.5 mg/ml, 48 hours
Procedure: as §1, §2, §3, §4

## COc1ccc(O)c(C(C)(C)C)c1 [BHA, butylated hydroxyanisole]
[1]
  Inhibition zone: 16.0 mm
[2]; Streptococcus mutans, 2.5 mg/ml, 48 hours
  Inhibition zone: 3.5 mm
[2]; against S. mutans
  antibacterial effect (in words): little antibacterial effect
[3]
  Inhibition zone: 18.4 mm
[4]
  Inhibition zone: 16.6 mm
[5]
  Inhibition zone: 16.0 mm
